Our source for the IC50 values is patent publication US20250313535A1, “ALPHA 4 BETA 7 INTEGRIN MODULATORS AND USES THEREOF” (DICE MOLECULES SV, INC., priority 2022, published 2025).

Some results are limits rather than exact numbers.

Chain of α4β1 integrin (P13612 34-1032): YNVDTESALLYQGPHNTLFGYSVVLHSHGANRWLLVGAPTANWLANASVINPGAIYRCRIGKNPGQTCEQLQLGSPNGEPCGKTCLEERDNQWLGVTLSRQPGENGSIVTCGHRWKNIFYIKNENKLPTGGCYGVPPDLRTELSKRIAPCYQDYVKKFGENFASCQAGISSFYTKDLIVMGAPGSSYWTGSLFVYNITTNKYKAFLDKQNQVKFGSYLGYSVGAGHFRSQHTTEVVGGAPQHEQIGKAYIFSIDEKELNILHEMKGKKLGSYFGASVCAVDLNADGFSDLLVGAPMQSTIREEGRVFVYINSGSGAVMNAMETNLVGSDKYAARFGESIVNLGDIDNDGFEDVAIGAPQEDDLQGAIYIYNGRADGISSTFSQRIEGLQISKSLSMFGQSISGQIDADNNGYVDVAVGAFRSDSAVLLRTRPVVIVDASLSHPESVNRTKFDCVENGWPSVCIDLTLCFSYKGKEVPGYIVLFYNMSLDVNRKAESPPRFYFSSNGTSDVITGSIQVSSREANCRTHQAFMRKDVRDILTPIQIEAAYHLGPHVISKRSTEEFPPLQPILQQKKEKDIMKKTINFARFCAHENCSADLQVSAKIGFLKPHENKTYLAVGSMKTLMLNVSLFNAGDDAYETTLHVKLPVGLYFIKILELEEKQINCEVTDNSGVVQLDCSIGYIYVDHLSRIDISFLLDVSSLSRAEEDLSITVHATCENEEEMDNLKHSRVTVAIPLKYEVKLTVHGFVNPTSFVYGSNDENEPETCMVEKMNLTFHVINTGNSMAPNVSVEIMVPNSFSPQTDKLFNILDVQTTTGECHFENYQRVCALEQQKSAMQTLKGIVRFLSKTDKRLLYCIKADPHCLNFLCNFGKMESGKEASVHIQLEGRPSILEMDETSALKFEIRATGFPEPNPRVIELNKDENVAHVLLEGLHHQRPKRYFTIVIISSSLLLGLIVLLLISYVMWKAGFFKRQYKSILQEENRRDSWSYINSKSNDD
Chain of α4β1 integrin (P05556 21-798): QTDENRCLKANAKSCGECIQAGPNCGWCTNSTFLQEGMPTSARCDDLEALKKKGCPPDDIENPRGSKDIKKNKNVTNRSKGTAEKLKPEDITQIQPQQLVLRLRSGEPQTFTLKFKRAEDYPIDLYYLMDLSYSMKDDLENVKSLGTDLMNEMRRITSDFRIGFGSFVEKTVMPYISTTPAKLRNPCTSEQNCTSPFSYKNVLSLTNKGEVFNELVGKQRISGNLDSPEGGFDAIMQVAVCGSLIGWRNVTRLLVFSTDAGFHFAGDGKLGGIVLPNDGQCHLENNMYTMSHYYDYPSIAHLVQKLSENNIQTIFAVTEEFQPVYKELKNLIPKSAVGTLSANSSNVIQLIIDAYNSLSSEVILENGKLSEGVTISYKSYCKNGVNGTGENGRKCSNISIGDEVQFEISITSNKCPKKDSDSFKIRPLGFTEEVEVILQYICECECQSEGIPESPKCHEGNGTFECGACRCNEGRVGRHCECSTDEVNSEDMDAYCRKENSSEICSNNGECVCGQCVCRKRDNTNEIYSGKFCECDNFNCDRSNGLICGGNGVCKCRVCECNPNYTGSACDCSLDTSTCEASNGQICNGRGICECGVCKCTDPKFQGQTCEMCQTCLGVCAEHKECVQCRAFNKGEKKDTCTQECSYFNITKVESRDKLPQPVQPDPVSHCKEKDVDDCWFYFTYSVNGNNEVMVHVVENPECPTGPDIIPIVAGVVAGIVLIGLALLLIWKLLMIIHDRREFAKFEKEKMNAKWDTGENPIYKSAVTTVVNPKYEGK

One assay deals with T1, α4β7 integrin (Homo sapiens (Human), UniProt P13612+P26010). The experiment in a line: Integrin Adhesion Assay: Protocol 4 (MAdCAM-coated plate, RPMI-8866 cells with stable LOF mutation of the ITGB1 gene). It is filed as cell-based. As to conditions: Protocol 4; RPMI-8866 cells with LOF mutation of ITGB1, MAdCAM; read-out: Mean IC50 α4β7 KO. A digest of the protocol: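 RPMI-8866 cells with CRISPR/Cas9 knockout of ITGB1 (2×10^6/mL) were added to MAdCAM-coated wells with compound (1% DMSO) in HEPES/NaCl buffer with 1 mM MnCl2, 0.1 mM CaCl2 and 1% BSA, then incubated 1 h at 37 °C. After four washes, adherent cells were quantified by CellTiter-Glo luminescence. Percent inhibition versus DMSO and control compound was fitted to 4-parameter curves.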
T1 sequence (P13612 34-1032): as the sequence (P13612 34-1032) above
T1 sequence (P26010 20-798): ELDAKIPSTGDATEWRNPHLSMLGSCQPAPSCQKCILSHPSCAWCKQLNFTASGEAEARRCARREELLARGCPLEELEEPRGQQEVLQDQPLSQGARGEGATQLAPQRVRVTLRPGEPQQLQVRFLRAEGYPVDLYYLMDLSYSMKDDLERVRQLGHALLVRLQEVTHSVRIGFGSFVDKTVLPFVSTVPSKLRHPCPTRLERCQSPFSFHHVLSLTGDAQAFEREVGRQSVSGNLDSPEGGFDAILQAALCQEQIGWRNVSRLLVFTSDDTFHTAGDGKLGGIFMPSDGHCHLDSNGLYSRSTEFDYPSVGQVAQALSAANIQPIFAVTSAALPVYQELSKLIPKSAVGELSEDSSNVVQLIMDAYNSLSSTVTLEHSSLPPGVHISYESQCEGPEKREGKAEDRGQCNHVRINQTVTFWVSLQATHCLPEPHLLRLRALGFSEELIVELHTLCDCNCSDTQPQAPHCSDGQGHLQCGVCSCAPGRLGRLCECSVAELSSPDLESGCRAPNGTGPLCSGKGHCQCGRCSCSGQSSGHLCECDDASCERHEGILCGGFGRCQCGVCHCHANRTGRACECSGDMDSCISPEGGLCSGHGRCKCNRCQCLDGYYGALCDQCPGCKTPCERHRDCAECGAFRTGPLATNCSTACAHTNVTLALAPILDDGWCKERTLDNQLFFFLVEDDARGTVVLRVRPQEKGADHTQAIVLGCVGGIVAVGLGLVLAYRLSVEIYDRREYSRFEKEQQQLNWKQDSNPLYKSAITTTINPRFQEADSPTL
Regarding `CC(C)c1cccc(F)c1C(=O)N[C@@H](Cc1cccc2c(-c3c(C(F)(F)F)c4cc(CN5CCCCC5)ccc4n(C)c3=O)cccc12)C(=O)O` [Compound 1029], the IC50 was less than 0.01 µM.

`COc1ccc(CN2CC(C(F)(F)F)C2)c(OC)c1-c1cccc2c(C[C@H](NC(=O)C3(C(F)(F)F)CCN(CC(F)(F)F)CC3)C(=O)O)cccc12` [Compound 814]: the IC50 was 0.01 to 0.1 µM. `O=C(O)[C@H](Cc1cccc2c(-c3cccc4c(CN5CCCCC5)cncc34)cccc12)NC(=O)C1(C(F)(F)F)CCN(CC(F)(F)F)CC1` [Compound 803]: the IC50 fell in the range of 0.01 to 0.1 µM.

Staying with this assay, now noted: RPMI-8866 cells with stable LOF mutation of the ITGB1 gene; read-out: Mean IC50 α4β7 KO^a.
With `COc1ccc(CN2CC(F)(F)C2)c(OC)c1-c1cccc2c(C[C@H](NC(=O)c3c(C)cccc3F)C(=O)O)cccc12` [Compound 627], the IC50 fell in the range of 0.01 to 0.1 µM.

In the next assay the target is α4β1 integrin (Homo sapiens (Human), UniProt P05556+P13612). The assay can be described thus: Integrin Adhesion Assay: Protocol 5 (VCAM-coated plate, RPMI-8866 cells with stable LOF mutation of the ITGB7 gene). In kind it is cell-based. Conditions: Protocol 5; RPMI-8866 cells with LOF mutation of ITGB7, VCAM; read-out: Mean IC50 α4β1 KO. A digest of the protocol:
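RPMI-8866 B cells with CRISPR/Cas9 ITGB7 knockout (clonal, verified by flow cytometry) adhered to VCAM-coated wells for 1 h at 37° C in HEPES/NaCl buffer with 1 mM MnCl2, 0.1 mM CaCl2, 1% BSA, 1% DMSO. Bound cells quantified by CellTiter-Glo luminescence after washing; % inhibition versus DMSO and control, 4-parameter fit.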
For `CC(C)c1cccc(F)c1C(=O)N[C@@H](Cc1cccc2c(-c3c(C(F)(F)F)c4cc(CN5CCCCC5)ccc4n(C)c3=O)cccc12)C(=O)O` [Compound 1029], the IC50 fell in the range of 0.01 to 0.1 µM. With `COc1ccc(CN2CC(C(F)(F)F)C2)c(OC)c1-c1cccc2c(C[C@H](NC(=O)C3(C(F)(F)F)CCN(CC(F)(F)F)CC3)C(=O)O)cccc12` [Compound 814], the IC50 is greater than 1 µM. Still for that read-out and setting: then `O=C(O)[C@H](Cc1cccc2c(-c3cccc4c(CN5CCCCC5)cncc34)cccc12)NC(=O)C1(C(F)(F)F)CCN(CC(F)(F)F)CC1` [Compound 803], with greater than 1 µM.

The same assay, now with this note: RPMI-8866 cells with stable LOF mutation of the ITGB7 gene; read-out: Mean IC50 α4β1 KO^b.
Turning to `COc1ccc(CN2CC(F)(F)C2)c(OC)c1-c1cccc2c(C[C@H](NC(=O)c3c(C)cccc3F)C(=O)O)cccc12` [Compound 627], the IC50 was greater than 1 µM.

The next assay has as its target T1, α4β7 integrin. The assay can be described thus: Integrin Adhesion Assay: Protocol 1 (MAdCAM-coated plate, RPMI-8866 cells, CellTiter GLO readout). It is filed as cell-based.
Conditions: not given
On the procedure: α4β7 and α4β1 inhibition was evaluated in vitro using at least one of the following procedures:
Integrin Adhesion Assay: Protocol 1
MAdCAM (R&D Systems, 0.1 ug) was diluted in 50 μL PBS, added to each well of an opaque ELISA plate (Thermo), and incubated overnight at 4° C. Coated plates were washed once with PBS and then blocked with 200 μL of assay buffer (10 mM HEPES, 150 mM NaCl, 1 mM MnCl2, 0.1 mM CaCl2), 1% BSA) for 1 hour at 37° C. and 5% CO2. After incubation, buffer was aspirated from the plates and 50 μL of fresh assay buffer is added. Compounds were added by a compouns dispenser (Tecan) and DMSO concentration was normalized to 1% across each plate. 50 μL of RPMI-8866 cells (2×10^6 per mL) were added to each well and the plates were incubated for 1 hour at 37° C. and 5% CO2. After incubation, plates were allowed to cool to RT for 10 minutes before being washed four times in assay buffer by an automated plate washer (BioTek). After washing, 100 μL of a 1:1 mixture of assay buffer and CellTiter GLO 2.0 reagent (Promega) were added to each well. Plates were mixed for 2 minutes at 1000 rpm and then allowed to incubate an additional 10 minutes before reading out luminescence on a Tecan Spark plate reader. Raw data was converted to percent inhibition based on DMSO only and control compound wells, and curves were analyzed by 4-parameter fit within Dotmatics software.
With `COCC1CCN(c2cc(F)c(C(=O)N[C@@H](Cc3cccc4c(-c5c(C(F)(F)F)c6ccccc6n(C)c5=O)cccc34)C(=O)O)c(F)c2)C1` (stereo partly shown) [Compound 463], the IC50 is greater than 1 µM. Still for that read-out and setting: as for `Cn1c(=O)c(-c2cccc3c(C[C@H](NC(=O)c4c(F)cc(N(CC5COC5)C5COC5)cc4F)C(=O)O)cccc23)c(C(F)(F)F)c2ccccc21` [Compound 394], the figure is 0.01 to 0.1 µM; as for `Cn1c(=O)c(-c2cccc3c(C[C@H](NC(=O)c4c(F)cc(N5CCOC[C@H]5c5ccccc5)cc4F)C(=O)O)cccc23)c(C(F)(F)F)c2ccccc21` [Compound 334], greater than 1 µM. In turn, `Cn1c(=O)c(-c2cccc3c(C[C@H](NC(=O)c4c(F)cc(N5CCC[C@@H]5C(F)(F)F)cc4F)C(=O)O)cccc23)c(C(F)(F)F)c2ccccc21` [Compound 319] displayed an IC50 of 0.1 to 1 µM. Same read-out and setting: then `Cc1cccc(C)c1-c1cc(F)c(C(=O)N[C@@H](Cc2cccc3c(-c4c(C(F)(F)F)c5ccccc5n(C)c4=O)cccc23)C(=O)O)c(F)c1` [Compound 304], with greater than 1 µM; and `Cn1c(=O)c(-c2cccc3c(C[C@H](NC(=O)c4c(F)cc(N5CCS(=O)(=O)CC5)cc4F)C(=O)O)cccc23)c(C(F)(F)F)c2ccccc21` [Compound 398], with 0.01 to 0.1 µM.

`Cc1cccc(C)c1-c1cc(C(=O)N[C@@H](Cc2cccc3c(-c4c(C(F)(F)F)c5ccccc5n(C)c4=O)cccc23)C(=O)O)c(F)c(C(F)(F)F)c1` [Compound 303] showed an IC50 greater than 1 µM. On the same count and under the same terms, as for `Cn1c(=O)c(-c2cccc3c(C[C@H](NC(=O)c4c(F)cc5cn(CC(F)(F)F)nc5c4F)C(=O)O)cccc23)c(C(F)(F)F)c2ccccc21` [Compound 348], the figure is 0.1 to 1 µM; as for `CO[C@@H]1C[C@H](c2cc(F)c(C(=O)N[C@@H](Cc3cccc4c(-c5c(C(F)(F)F)c6ccccc6n(C)c5=O)cccc34)C(=O)O)c(F)c2)N(C)C1` [Compound 465], 0.1 to 1 µM. On the same count and under the same terms, as for `Cn1c(=O)c(-c2cccc3c(C[C@H](NC(=O)c4c(F)cc(OC(F)(F)F)cc4F)C(=O)O)cccc23)c(C(F)(F)F)c2ccccc21` [Compound 370], the figure is greater than 1 µM; as for `Cn1c(=O)c(-c2cccc3c(C[C@H](NC(=O)c4cc5ccc(N6CC(F)(F)C6)cn5n4)C(=O)O)cccc23)c(C(F)(F)F)c2ccccc21` [Compound 428], greater than 1 µM; as for `Cn1c(=O)c(-c2cccc3c(C[C@H](NC(=O)c4c(F)cc(N5CCOc6ccc(C(F)(F)F)cc65)cc4F)C(=O)O)cccc23)c(C(F)(F)F)c2ccccc21` [Compound 343], greater than 1 µM. Still for that read-out and setting: then `CN(C)Cc1ccc2c(-c3cccc4c(C[C@H](NC(=O)[C@]5(C)CC[C@H](N6CCC(F)(F)CC6)CC5)C(=O)O)cccc34)nccc2c1` [Compound 586], with greater than 1 µM. Molecule `Cn1c(=O)c(-c2cccc3c(C[C@H](NC(=O)c4c(F)cc([C@H]5C[C@H](N(C)C)C5)cc4F)C(=O)O)cccc23)c(C(F)(F)F)c2ccccc21` [Compound 417] showed a half-maximal inhibitory concentration (IC50) greater than 1 µM. Turning to `Cn1c(=O)c(-c2cccc3c(C[C@H](NC(=O)c4c(F)cc(N5CCO[C@@H](c6ccccc6)C5)cc4F)C(=O)O)cccc23)c(C(F)(F)F)c2ccccc21` [Compound 338], the IC50 is greater than 1 µM.

`Cn1c(=O)c(-c2cccc3c(C[C@H](NC(=O)c4c(F)cc(N5CCO[C@H](c6ccccc6)C5)cc4F)C(=O)O)cccc23)c(C(F)(F)F)c2ccccc21` [Compound 333] registered an IC50 greater than 1 µM. For the molecule `Cn1c(=O)c(-c2cccc3c(C[C@H](NC(=O)c4c(F)cc5[nH]c(CC(F)(F)F)nc5c4F)C(=O)O)cccc23)c(C(F)(F)F)c2ccccc21` [Compound 320], the concentration for half-maximal inhibition (IC50) fell in the range of 0.1 to 1 µM.

The molecule `Cc1c(C(=O)N[C@@H](Cc2cccc3c(-c4c(C(F)(F)F)c5ccccc5n(C)c4=O)cccc23)C(=O)O)nn2ccccc12` [Compound 329] gave a concentration for half-maximal inhibition (IC50) greater than 1 µM. Same read-out and setting: then `Cn1c(C(F)(F)F)cc(C(F)(F)F)c(-c2cccc3c(C[C@H](NC(=O)[C@]4(C)CC[C@H](N5CCC(F)(F)CC5)CC4)C(=O)O)cccc23)c1=O` [Compound 406], with greater than 1 µM; and `Cn1c(=O)c(-c2cccc3c(C[C@H](NC(=O)c4c(F)cc(-c5ccc(F)c(Cl)c5)cc4F)C(=O)O)cccc23)c(C(F)(F)F)c2ccccc21` [Compound 345], with greater than 1 µM; and `Cn1c(=O)c(-c2cccc3c(C[C@H](NC(=O)c4c(F)ccc(C5CCCCC5)c4F)C(=O)O)cccc23)c(C(F)(F)F)c2ccccc21` [Compound 377], with greater than 1 µM.

In turn, `Cn1c(=O)c(-c2cccc3c(C[C@H](Nc4nccc(N5CCOC[C@@H]5C(F)(F)F)c4F)C(=O)O)cccc23)c(C(F)(F)F)c2ccccc21` [Compound 326] yielded an IC50 greater than 1 µM. Still for that read-out and setting: as for `Cn1c(=O)c(-c2cccc3c(C[C@H](NC(=O)c4c(F)cc(C5CCCCC5)cc4F)C(=O)O)cccc23)c(C(F)(F)F)c2ccccc21` [Compound 376], the figure is greater than 1 µM; as for `Cn1c(=O)c(-c2cccc3c(C[C@H](NC(=O)c4c(F)cc(N5CC(F)C5)cc4F)C(=O)O)cccc23)c(C(F)(F)F)c2ccccc21` [Compound 395], 0.1 to 1 µM; as for `Cn1c(=O)c(-c2cccc3c(C[C@H](NC(=O)c4c(F)cc(N5CCOC(c6cccc(C(F)(F)F)c6)C5)cc4F)C(=O)O)cccc23)c(C(F)(F)F)c2ccccc21` (stereo partly shown) [Compound 342], greater than 1 µM.

Staying with this assay, now noted: integrin adhesion assay; determined by at least one of the assays described (protocol not specified).
In turn, `Cc1nn(C2CCOCC2)c(C)c1C(=O)N[C@@H](Cc1cccc2c(-n3c(=O)ccn(C)c3=O)cccc12)C(=O)O` [Compound 123] displayed an IC50 of 0.01 to 0.1 µM.

`Cn1ccc(=O)n(-c2cccc3c(C[C@H](NC(=O)c4c(F)ccc(C#N)c4F)C(=O)O)cccc23)c1=O` [Compound 32]: the half-maximal inhibitory concentration (IC50) lay in the range of 0.01 to 0.1 µM. The same measure, in the same setting: then `Cc1nccc(O)c1C(=O)N[C@@H](Cc1cccc2c(-n3c(=O)ccn(C)c3=O)cccc12)C(=O)O` [Compound 125], with greater than 1 µM; and `C=CCc1cn(C)c(=O)n(-c2cccc3c(C[C@H](NC(=O)c4c(F)cccc4F)C(=O)O)cccc23)c1=O` [Compound 136], with 0.01 to 0.1 µM; and `Cc1nn(CC(F)(F)F)c(C)c1C(=O)N[C@@H](Cc1cccc2c(-n3c(=O)ccn(C)c3=O)cccc12)C(=O)O` [Compound 122], with 0.01 to 0.1 µM. The same measure, in the same setting: as for `Cn1ccc(=O)n(-c2cccc3c(C[C@H](NC(=O)c4c(F)ccc(NS(=O)(=O)C5CC5)c4F)C(=O)O)cccc23)c1=O` [Compound 134], the figure is less than 0.01 µM. The same measure, in the same setting: then `Cn1ccc(C(F)(F)F)c(-c2cncc3c(C[C@H](NC(=O)c4c(F)cccc4F)C(=O)O)cccc23)c1=O` [Compound 211], with 0.01 to 0.1 µM.

A word on the IC50: it is the concentration that inhibits the measured activity by half.
